Source: patent US11629141B2, “Proteasome inhibitors and uses thereof” (CORNELL UNIVERSITY, priority 2015, dated 2023)
Read-outs that look alike come from different tables or passages of the source.

How the values were obtained:
[1] = system: Plasmodium falciparum; assay: Growth of Plasmodium falciparum in red blood cells (SYBR Green, 72 hours); assay type: cell-based
Procedure: Continuous in vitro cultures of Plasmodium falciparum: were maintained in human red blood cells (RBC) diluted to a hematocrit of 5% in RPMI 1640 medium with HEPES and Hypoxanthine and completed with 0.5% Albumax II (Invitrogen), 0.25% sodium bicarbonate, and 0.1 mg/ml gentamicin. Parasites were incubated at 37° C. in a gas mixture of 5% oxygen, 5% carbon dioxide, and 90% nitrogen.
Parasite sensitivity to novel compounds were determined using a SYBR Green (Invitrogen S1046) drug assay protocol. P. falciparum of various clinic stains were cultured with compounds at concentrations in a series of dilution in a clear, sterile 96-well plate for 72 hours. Subsequently, 150 μl of the cultures were transferred to a black 96-well plate and placed in the freezer for red blood cell lysis. The plates were thawed and suspended in a Sybr Green Lysis buffer. GraphPad Prism was used to analyze the raw data collected […]. Drug concentrations were converted to logarithms, normalized, and then curve fitted by non-linear regression to obtain EC50 values.
Plasmodium falciparum: parasites were cultured in human red cells. Drug assays were run in 96 well plates at a total volume of 200 μl. Assays were set up at a starting parasitemia (percent of infected red cells) of 0.5%. Test compounds were plated at concentrations of 2778 nM to 0.4 nM. The test plates were grown under standard low oxygen conditions at 37° C. for 72 hours. At that time the plates were prepared for growth determination, first the plates were frozen and thawed to lyse the red blood cells, 150 μl of the lysed thawed culture was transferred to a black 96 well plate, and mixed in a lysis buffer with SYBR green DNA dye. The fluorescence of each well was recorded in a plate reader with excitation wavelength 490 nm and emission wavelength 530 nm and normalized relative to DMSO control. The EC50s were determined using Prism software.

[2] = biological target: T1, c-20S β5c (Homo sapiens, UniProt P28074); assay: Kinetic analysis, substrate titration of c-20S steady state velocities; assay type: biochemical
T1 construct: purchased Boston Biochem Inc
Procedure: FIGS. 1A-1E are graphs showing inhibition modality of PKS21004 against human proteasomes. Washout of c-20S from the preincubated c-20S and […] to recover the β5c activity (FIG. 1A). Substrate titration of hu i-20S (FIG. 1B) and c-20S (FIG. 1D) steady state velocities in the presence of PKS21004 at the concentrations indicated next to each curve. Data as in (FIG. 1B) were plotted double reciprocal in (FIG. 1C), and (FIG. 1D) in (FIG. 1E).
A washout experiment was used to confirm the reversibility of this class of proteasome inhibitors, as expected from their non-covalent chemistry.

SMILES: CC(C)(C)NC(=O)C[C@H](NC(=O)CCc1ccccc1)C(=O)NCCNC(=O)c1cccc(-c2ccccc2)c1 [PKS21004]
- EC50 ([1]; D6, Erythrocyte, read-out: EC50s against P. falciparum strain D6): 4 nM
- EC50 ([1]; DD2, Erythrocyte, read-out: EC50s against P. falciparum strain Dd2): 4.8 nM
- EC50 ([1]; Erythrocyte, P.f. 3D7, growth in red blood cells, read-out: EC50 (nM) (P.f.)): 4.6 nM
- EC50 ([1]; Erythrocyte, read-out: EC50s against P. falciparum strain IPC 3663): 6 nM
- EC50 ([1]; Erythrocyte, read-out: EC50s against P. falciparum strain IPC 4884): 5.2 nM
- EC50 ([1]; Erythrocyte, read-out: EC50s against P. falciparum strain IPC 4912): 5.8 nM
- EC50 ([1]; Erythrocyte, read-out: EC50s against P. falciparum strain IPC 5188): 1.5 nM
- EC50 ([1]; Erythrocyte, read-out: EC50s against P. falciparum strain Sb1-a6): 4.8 nM
- EC50 ([1]; Erythrocyte, read-out: EC50s against P. falciparum strain V1S): 1.7 nM
- EC50 ([1]; HB3, Erythrocyte, read-out: EC50s against P. falciparum strain HB3): 10 nM
- Ki [2]: 550 nM
- α for c-20S ([2]; fit to equation for noncompetitive inhibitors): 0.98 and ≈ 0.57
- modality of inhibition of β5c ([2]; with respect to substrate): noncompetitive inhibitor
